# Assay results: patent publication US10875875B2, “Propionic acid derivatives and methods of use thereof” (Aviara Pharmaceuticals, Inc., priority 2017, dated 2020)
# Molecular target: α4β1 (Homo sapiens, UniProt P05556+P13612)
# Test: α4β1 integrin inhibition, IC50
# Assay type: binding
# Conditions: read-out: α4β1 IC50
# α4β1, sequence (P13612 34-1032): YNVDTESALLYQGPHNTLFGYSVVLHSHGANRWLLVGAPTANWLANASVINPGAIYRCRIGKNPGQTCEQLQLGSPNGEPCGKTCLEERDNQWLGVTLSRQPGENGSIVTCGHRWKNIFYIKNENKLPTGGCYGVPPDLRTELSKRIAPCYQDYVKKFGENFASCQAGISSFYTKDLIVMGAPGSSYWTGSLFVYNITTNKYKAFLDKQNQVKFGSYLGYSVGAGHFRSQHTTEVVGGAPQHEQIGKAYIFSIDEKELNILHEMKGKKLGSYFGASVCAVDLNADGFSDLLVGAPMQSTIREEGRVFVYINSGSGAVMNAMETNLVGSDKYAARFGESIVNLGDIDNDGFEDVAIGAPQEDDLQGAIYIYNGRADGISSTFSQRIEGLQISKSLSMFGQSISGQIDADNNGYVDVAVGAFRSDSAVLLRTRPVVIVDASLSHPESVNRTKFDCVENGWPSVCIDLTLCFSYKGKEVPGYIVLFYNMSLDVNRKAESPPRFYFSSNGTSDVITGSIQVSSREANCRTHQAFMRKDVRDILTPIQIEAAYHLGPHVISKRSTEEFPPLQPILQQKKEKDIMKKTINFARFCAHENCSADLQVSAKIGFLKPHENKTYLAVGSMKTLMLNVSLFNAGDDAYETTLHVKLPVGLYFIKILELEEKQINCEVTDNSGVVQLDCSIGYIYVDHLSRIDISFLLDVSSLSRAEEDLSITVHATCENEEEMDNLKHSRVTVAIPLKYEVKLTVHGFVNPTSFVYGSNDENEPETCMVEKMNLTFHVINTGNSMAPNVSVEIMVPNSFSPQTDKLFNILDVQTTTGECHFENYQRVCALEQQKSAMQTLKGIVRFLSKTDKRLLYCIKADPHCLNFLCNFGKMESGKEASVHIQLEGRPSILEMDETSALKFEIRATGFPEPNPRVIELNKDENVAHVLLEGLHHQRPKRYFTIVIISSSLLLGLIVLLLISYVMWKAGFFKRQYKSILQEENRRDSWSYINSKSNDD
# α4β1, sequence (P05556 21-798): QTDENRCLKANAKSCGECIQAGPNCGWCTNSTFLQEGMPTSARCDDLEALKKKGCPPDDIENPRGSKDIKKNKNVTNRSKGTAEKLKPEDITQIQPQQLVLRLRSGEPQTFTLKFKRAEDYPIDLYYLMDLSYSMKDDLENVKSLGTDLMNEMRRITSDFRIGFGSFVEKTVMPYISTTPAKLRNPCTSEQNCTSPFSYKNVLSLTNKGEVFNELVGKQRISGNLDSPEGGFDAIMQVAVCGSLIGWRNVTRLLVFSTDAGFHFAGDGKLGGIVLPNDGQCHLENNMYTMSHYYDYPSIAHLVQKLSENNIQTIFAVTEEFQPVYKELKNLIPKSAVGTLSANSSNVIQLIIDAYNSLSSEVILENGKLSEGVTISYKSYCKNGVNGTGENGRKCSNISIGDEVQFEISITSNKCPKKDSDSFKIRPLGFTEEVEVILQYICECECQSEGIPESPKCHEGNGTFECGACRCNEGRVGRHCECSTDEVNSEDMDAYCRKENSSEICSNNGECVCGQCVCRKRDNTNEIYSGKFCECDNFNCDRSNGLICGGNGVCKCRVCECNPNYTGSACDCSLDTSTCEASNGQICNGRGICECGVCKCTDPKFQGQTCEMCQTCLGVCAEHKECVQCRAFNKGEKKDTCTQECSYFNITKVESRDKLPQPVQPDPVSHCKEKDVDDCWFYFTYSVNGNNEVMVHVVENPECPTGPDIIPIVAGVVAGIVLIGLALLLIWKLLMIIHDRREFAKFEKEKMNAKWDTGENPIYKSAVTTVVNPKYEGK
row,Compound,IC50
1,"COc1cccc(-c2cc(F)cc([C@H](CC(=O)O)NC(=O)Nc3c(O)ccn(C)c3=O)c2)c1 [1-604, sodium (S)-3-(5-fluoro-3′-methoxybiphenyl-3-yl)-3-(3-(1-methyl-4-oxido-2-oxo-1,2-dihydropyridin-3-yl)ureido)propanoate]",< 20 nM
2,"COc1cccc(-c2cc(F)cc([C@H](CC(=O)O)NC(=O)Nc3c(O)cc(C)n(C)c3=O)c2)c1 [1-605, sodium (S)-3-(5-fluoro-3′-methoxybiphenyl-3-yl)-3-(3-(4-hydroxy-1,6-dimethyl-2-oxo-1,2-dihydropyridin-3-yl)ureido)propanoate]",< 20 nM
3,"Cc1cc(O)c(NC(=O)N[C@@H](CC(=O)O)c2cc(F)cc(-c3cccc(OC(F)(F)F)c3)c2)c(=O)n1C [1-606, sodium (S)-3-(3-(1,6-dimethyl-4-oxido-2-oxo-1,2-dihydropyridin-3-yl)ureido)-3-(5-fluoro-3′-trifluoromethoxybiphenyl-3-yl)propanoate]",< 20 nM
4,"Cn1ccc(O)c(NC(=O)N[C@@H](CC(=O)O)c2cc(F)cc(-c3cccc(OC(F)(F)F)c3)c2)c1=O [1-607, sodium (S)-3-(5-fluoro-3′-(trifluoromethoxy)biphenyl-3-yl)-3-(3-(1-methyl-4-oxido-2-oxo-1,2-dihydropyridin-3-yl)ureido)propanoate]",< 20 nM
5,"Cc1noc(C)c1-c1ccc([C@H](CC(=O)O)NC(=O)Nc2c(O)ccn(C)c2=O)s1 [1-608, sodium (S)-3-(5-(3,5-dimethylisoxazol-4-yl)thiophen-2-yl)-3-(3-(1-methyl-4-oxido-2-oxo-1,2-dihydropyridin-3-yl)ureido)propanoate]",< 20 nM
6,"Cc1noc(C)c1-c1cccc([C@H](CC(=O)O)NC(=O)Nc2c(O)cc(C)n(C)c2=O)c1 [1-609, sodium (S)-3-(3-(1,6-dimethyl-4-oxido-2-oxo-1,2-dihydropyridin-3-yl)ureido)-3-(3-(3,5-dimethylisoxazol-4-yl)phenyl)propanoate]",< 20 nM
7,"Cc1cc(O)c(NC(=O)N[C@@H](CC(=O)O)c2cccc(-c3ccccc3)c2F)c(=O)n1C [1-610, sodium (S)-3-(3-(1,6-dimethyl-4-oxido-2-oxo-1,2-dihydropyridin-3-yl)ureido)-3-(2-fluorobiphenyl-3-yl)propanoate]",< 20 nM
8,"Cc1ccccc1-c1cc([C@H](CC(=O)O)NC(=O)Nc2c(O)cc(C)n(C)c2=O)ccc1F [1-611, sodium (S)-3-(3-(1,6-dimethyl-4-oxido-2-oxo-1,2-dihydropyridin-3-yl)ureido)-3-(6-fluoro-2′-methylbiphenyl-3-yl)propanoate]",< 20 nM
9,"Cc1ccccc1-c1cc([C@H](CC(=O)O)NC(=O)Nc2c(O)ccn(C)c2=O)ccc1F [1-612, sodium (S)-3-(6-fluoro-2′-methylbiphenyl-3-yl)-3-(3-(1-methyl-4-oxido-2-oxo-1,2-dihydropyridin-3-yl)ureido)propanoate]",< 20 nM
10,"Cn1ccc(O)c(NC(=O)N[C@@H](CC(=O)O)c2ccc(-c3ccccc3)s2)c1=O [1-613, sodium (S)-3-(3-(1-methyl-4-oxido-2-oxo-1,2-dihydropyridin-3-yl)ureido)-3-(5-phenylthiophen-2-yl)propanoate]",< 20 nM
11,"Cn1ccc(O)c(NC(=O)N[C@@H](CC(=O)O)c2ccc(-c3cc(F)ccc3F)s2)c1=O [1-614, sodium (S)-3-(5-(2,5-difluorophenyl)thiophen-2-yl)-3-(3-(1-methyl-4-oxido-2-oxo-1,2-dihydropyridin-3-yl)ureido)propanoate]",< 20 nM
12,"Cn1ccc(O)c(NC(=O)N[C@@H](CC(=O)O)c2cc(OC(F)(F)F)cc(-c3ccccc3)c2)c1=O [1-615, sodium (S)-3-(3-(1-methyl-4-oxido-2-oxo-1,2-dihydropyridin-3-yl)ureido)-3-(5-(trifluoromethoxy)biphenyl-3-yl)propanoate]",< 20 nM
13,"Cc1ccccc1-c1ccc([C@H](CC(=O)O)NC(=O)Nc2c(O)ccn(C)c2=O)cc1 [1-616, sodium (S)-3-(3-(1-methyl-4-oxido-2-oxo-1,2-dihydropyridin-3-yl)ureido)-3-(2′-methylbiphenyl-4-yl)propanoate]",< 20 nM
14,"Cn1ccc(O)c(NC(=O)N[C@@H](CC(=O)O)c2cc(-c3ccccc3)cc(C(F)(F)F)c2)c1=O [1-618, sodium (S)-3-(3-(1-methyl-4-oxido-2-oxo-1,2-dihydropyridin-3-yl)ureido)-3-(5-(trifluoromethyl)biphenyl-3-yl)propanoate]",> 200 nM
15,"Cn1ccc(O)c(NC(=O)N[C@@H](CC(=O)O)c2ccc(-c3cccc(Cl)c3)s2)c1=O [1-619, sodium (S)-3-(5-(3-chlorophenyl)thiophen-2-yl)-3-(3-(1-methyl-4-oxido-2-oxo-1,2-dihydropyridin-3-yl)ureido)propanoate]",< 200 nM
16,"Cn1ccc(O)c(NC(=O)N[C@@H](CC(=O)O)c2ccc(-c3cccc(F)c3)s2)c1=O [1-620, sodium (S)-3-(5-(3-fluorophenyl)thiophen-2-yl)-3-(3-(1-methyl-4-oxido-2-oxo-1,2-dihydropyridin-3-yl)ureido)propanoate]",< 200 nM

row,Compound,IC50
1,"Cn1ccc(O)c(NC(=O)N[C@@H](CC(=O)O)c2ccc(-c3ccc(F)cc3F)cc2)c1=O [1-621, sodium (S)-3-(2′,4′-difluorobiphenyl-4-yl)-3-(3-(1-methyl-4-oxido-2-oxo-1,2-dihydropyridin-3-yl)ureido)propanoate]",< 20 nM
2,"Cc1cc(O)c(NC(=O)N[C@@H](CC(=O)O)c2ccc(-c3ccc(F)cc3F)cc2)c(=O)n1C [1-622, sodium (S)-3-(2′,4′-difluorobiphenyl-4-yl)-3-(3-(1,6-dimethyl-4-oxido-2-oxo-1,2-dihydropyridin-3-yl)ureido)propanoate]",< 20 nM
3,"Cc1cn(C)c(=O)c(NC(=O)N[C@@H](CC(=O)O)c2ccc(-c3ccc(F)cc3F)cc2)c1O [1-623, sodium (S)-3-(2′,4′-difluorobiphenyl-4-yl)-3-(3-(1,5-dimethyl-4-oxido-2-oxo-1,2-di hydropyridin-3-yl)ureido)propanoate]",< 20 nM
4,"Cc1ccccc1-c1cc([C@H](CC(=O)O)NC(=O)Nc2c(O)ccn(C)c2=O)ccc1OC(F)(F)F [1-624, sodium (S)-3-(3-(1-methyl-4-oxido-2-oxo-1,2-dihydropyridin-3-yl)ureido)-3-(2′-methyl-6-(trifluoromethoxy)biphenyl-3-yl)propanoate]",< 20 nM
5,"Cn1ccc(O)c(NC(=O)N[C@@H](CC(=O)O)c2ccc(OC(F)(F)F)c(-c3ccccc3)c2)c1=O [1-625, sodium (S)-3-(3-(1-methyl-4-oxido-2-oxo-1,2-dihydropyridin-3-yl)ureido)-3-(6-(trifluoromethoxy)biphenyl-3-yl)propanoate]",< 200 nM
6,"CC(=O)c1cccc(-c2cccc(C(CC(=O)O)NC(=O)Nc3c(O)c(C)cn(C)c3=O)c2)c1 (centres unmarked) [1-626, sodium 3-(3′-acetylbiphenyl-3-yl)-3-(3-(1,5-dimethyl-4-oxido-2-oxo-1,2-dihydropyridin-3-yl)ureido)propanoate]",< 20 nM
7,"Cc1cn(C)c(=O)c(NC(=O)N[C@@H](CC(=O)O)c2ccc(-c3ccccc3)s2)c1O [1-628, sodium (S)-3-(3-(1,5-dimethyl-4-oxido-2-oxo-1,2-dihydropyridin-3-yl)ureido)-3-(5-phenylthiophen-2-yl)propanoate]",< 200 nM
8,"Cn1ccc(O)c(NC(=O)N[C@@H](CC(=O)O)c2cccc(-c3nccs3)c2)c1=O [1-630, sodium (S)-3-(3-(1-methyl-4-oxido-2-oxo-1,2-dihydropyridin-3-yl)ureido)-3-(3-(thiazol-2-yl)phenyl)propanoate]",< 20 nM
9,"Cc1cc(-c2cccc(OC(F)(F)F)c2)cc([C@H](CC(=O)O)NC(=O)Nc2c(O)cc(C)n(C)c2=O)c1 [1-631, sodium (S)-3-(3-(1,6-dimethyl-4-oxido-2-oxo-1,2-dihydropyridin-3-yl)ureido)-3-(5-methyl-3′-(trifluoromethoxy)biphenyl-3-yl)propanoate]",< 20 nM
10,"Cc1cc(O)c(NC(=O)N[C@@H](CC(=O)O)c2cc(F)cc(-c3ccc(F)cc3F)c2)c(=O)n1C [1-632, sodium (S)-3-(3-(1,6-dimethyl-4-oxido-2-oxo-1,2-dihydropyridin-3-yl)ureido)-3-(2′,4′,5-trifluorobiphenyl-3-yl)propanoate]",< 20 nM
11,"Cn1ccc(O)c(NC(=O)N[C@@H](CC(=O)O)c2cc(F)cc(-c3ccc(F)cc3F)c2)c1=O [1-633, sodium (S)-3-(3-(1-methyl-4-oxido-2-oxo-1,2-dihydropyridin-3-yl)ureido)-3-(2′,4′,5-trifluorobiphenyl-3-yl)propanoate]",< 20 nM
12,"COc1cccc(-c2cc([C@H](CC(=O)O)NC(=O)Nc3c(O)ccn(C)c3=O)ccc2OC(F)(F)F)c1 [1-634, sodium (S)-3-(3′-methoxy-6-(trifluoromethoxy)biphenyl-3-yl)-3-(3-(1-methyl-4-oxido-2-oxo-1,2-dihydropyridin-3-yl)ureido)propanoate]",< 20 nM
13,"COc1cccc(-c2cc([C@H](CC(=O)O)NC(=O)Nc3c(O)cc(C)n(C)c3=O)ccc2OC(F)(F)F)c1 [1-635, sodium (S)-3-(3-(1,6-dimethyl-4-oxido-2-oxo-1,2-dihydropyridin-3-yl)ureido)-3-(3′-methoxy-6-(trifluoromethoxy)biphenyl-3-yl)propanoate]",< 20 nM
14,"Cc1cccc(C)c1-c1ccc([C@H](CC(=O)O)NC(=O)Nc2c(O)ccn(C)c2=O)cc1 [1-636, sodium (S)-3-(2′,6′-dimethylbiphenyl-4-yl)-3-(3-(1-methyl-4-oxido-2-oxo-1,2-dihydropyridin-3-yl)ureido)propanoate]",< 200 nM
15,"Cc1ccccc1-c1ccc([C@H](CC(=O)O)NC(=O)Nc2c(O)cc(C)n(C)c2=O)cc1 [1-637, sodium (S)-3-(3-(1,6-dimethyl-4-oxido-2-oxo-1,2-dihydropyridin-3-yl)ureido)-3-(2′-methylbiphenyl-4-yl)propanoate]",< 20 nM
16,"Cc1cccc(C)c1-c1ccc([C@H](CC(=O)O)NC(=O)Nc2c(O)cc(C)n(C)c2=O)cc1 [1-638, sodium (S)-3-(3-(1,6-dimethyl-4-oxido-2-oxo-1,2-dihydropyridin-3-yl)ureido)-3-(2′,6′-dimethylbiphenyl-4-yl)propanoate]",< 200 nM
